Reference: PubChem BioAssay AID1626 (SRMLSC, 2009)

System: M. tuberculosis H37Rv growth inhibition
Assay: M. tuberculosis H37Rv growth inhibitors, H37Rv strain (AID 1626)
Details: for IC90: measured here: IC90 against H37Rv; for CC50: measured here: Vero cell cytotoxicity

Row | Structure (SMILES) | IC50 | IC90 | CC50
1 | Cc1sc2nc(-c3ccccn3)[nH]c(=O)c2c1-c1ccccc1 | 0.69 µM | 1.69 µM | 15.2 µM
2 | COc1ccc(CNC(=O)c2c(C)nc3ccccn23)cc1 | 1.77 µM | 7.63 µM | –
3 | C=C1C(=O)[C@@]23[C@H](O)C[C@@H]4C(C)(C)CC[C@H](O)[C@@]4(C)[C@@H]2CC[C@@H]1[C@H]3O | 8.62 µM | 14.6 µM | 5.78 µM
4 | c1nc2n(n1)C1=C(CCCC1)C1(CCCCC1)N2 | 18.2 µM | > 100 µM | –
5 | CCCCCc1cc(=O)oc2c(C(CCN(CC)CC)c3ccc(N(C)C)cc3)c(OC)cc(OC)c12 (stereo unspecified) | 4.06 µM | 5.28 µM | 14.9 µM
6 | O=[N+]([O-])c1cc(O)c2ncccc2c1 | 2.71 µM | 3.39 µM | 7.36 µM
7 | Cc1ccccc1/C=c1\s/c(=C\C(=O)C(C)(C)C)[nH]c1=O | 52.8 µM | > 100 µM | 17.2 µM
8 | Cc1scc(C(=O)NCc2ccco2)c1-c1ccccc1 | 2.81 µM | 9.77 µM | –
9 | Cc1cc([N+](=O)[O-])ccc1NC(=O)CN1C2CCC1CC(NC(=O)NC13CC4CC(CC(C4)C1)C3)C2 (stereo unspecified) | 3.02 µM | 5.59 µM | > 40 µM
10 | CC(C)c1ccc(CNc2nc3nc4c(c(=O)n3[nH]2)CCC4)cc1 | 0.464 µM | > 100 µM | –
11 | CCOC(=O)CSCC(=O)Nc1c(C(=O)C2CC2)oc2ccccc12 | 5.86 µM | 9.32 µM | –
12 | COc1cc(CC(=O)Nc2ccc3nc(SC)sc3c2)cc(OC)c1OC | 11.3 µM | 16.1 µM | –
13 | CC1(C)CC(=O)C2=C(C1)OC(N)=C([N+](=O)[O-])C2c1ccc(C#N)s1 (stereo unspecified) | 10.9 µM | 15.2 µM | –
14 | COc1ccc(C(CCN2CCCC(C)C2)c2c(OC)cc(OC)c3c(-c4ccccc4)cc(=O)oc23)cc1 (stereo unspecified) | 7.53 µM | 10.2 µM | 14.1 µM
15 | Cc1ccc(C(=O)Nc2nc(-c3ccccn3)cs2)o1 | 2.56 µM | 6.19 µM | > 40 µM
16 | CCOC(=O)c1sc(NC(=O)CSc2ncn[nH]2)c(C#N)c1C | – | – | > 40 µM
17 | Cc1cccc(N2CCN(C(=O)c3ccc4nc(N5CCCCC5)sc4c3)CC2)c1C | 7.98 µM | 11.2 µM | > 40 µM
18 | c1ccc(CN2CCC(Nc3nc(-c4cccs4)nc4ccccc34)CC2)cc1 | 4.78 µM | 6.93 µM | 17.5 µM
19 | Nc1ccc(-n2ccnc2)cc1 | 41 µM | > 100 µM | –
20 | CN1c2ccc([N+](=O)[O-])cc2CC2(C(=O)NC(=O)N(c3ccc(Br)cc3)C2=O)C1c1ccccc1 (stereo unspecified) | 0.964 µM | > 100 µM | > 40 µM
21 | COc1ccc2c(c1)CCc1cnc(N)nc1-2 | 69.9 µM | > 100 µM | > 40 µM

Row | Structure (SMILES) | IC50 | IC90 | CC50
22 | CC(C)(C)NC(=O)COC(=O)c1snc(C(=O)NC2CCCCC2)c1N | 1.84 µM | 3.78 µM | > 40 µM
23 | CC(C)Cc1c(O)nc(SCC(=O)Nc2ccc3c(c2)CCC3)[nH]c1=O | – | > 100 µM | –
24 | Nc1nc(CCl)nc(Nc2ccccc2)n1 | 31.2 µM | > 100 µM | 3.32 µM
25 | CCc1ccc(-c2cc(C(F)(F)F)n3nc(C(=O)Nc4c(C)nn(Cc5ccc(F)cc5)c4C)cc3n2)s1 | 16.2 µM | > 100 µM | > 40 µM
26 | COc1ccc(Oc2ccc(N/C=C/C(=O)C(C)(C)C)cc2)cc1 | 75 µM | > 100 µM | –
27 | CCOC(=O)CSc1nnc(-c2ccc([N+](=O)[O-])cc2)o1 | 0.316 µM | 3.84 µM | –
28 | Oc1cccc2ccc(/C=C/c3c(F)cccc3Cl)nc12 | 1.37 µM | 6.64 µM | > 40 µM
29 | Oc1c(CN2CCc3ccccc3C2)cc(Cl)c2cccnc12 | 7.65 µM | 9.8 µM | 4.88 µM
30 | N#CC(C(=O)C12CC3CC(CC(C3)C1)C2)c1nc2ccccc2[nH]1 (stereo unspecified) | 9.8 µM | > 100 µM | > 40 µM
31 | Cc1cccc(-c2noc(-c3cc4ccccc4oc3=O)n2)c1 | 1.28 µM | > 100 µM | –
32 | CC(C)(C)C(=O)COC(=O)c1cc2ccccc2cc1O | 2.73 µM | 16.5 µM | –
33 | O=C(Cc1cccs1)N1CCN=C1SCc1ccc(Br)cc1 | – | > 100 µM | –
34 | COC(=O)c1cc(-c2ccc(OC)c(OC)c2)on1 | < 0.391 µM | > 100 µM | –
35 | Nc1c(C(=O)NC2CCCCC2)nsc1C(=O)OCC(=O)NC1CCCCC1 | 2.04 µM | > 100 µM | > 40 µM
36 | O=C(CC(Nc1ccc(F)cc1)C(=O)OCC(=O)c1cccs1)c1ccccc1 (stereo unspecified) | 67.1 µM | > 100 µM | –
37 | CC(=O)c1ccc(NC(=O)c2cc(CC(C)C)on2)cc1 | 7.21 µM | 42.9 µM | –
38 | Nc1ccc2cc(Br)ccc2c1 | 0.632 µM | > 100 µM | –
39 | CCOc1ccc(N=Cc2c(O)n(-c3ccc(C)c(C)c3)c(=O)[nH]c2=O)cc1 | < 0.195 µM | > 100 µM | –
40 | O=C(c1cc2c(F)cccc2s1)N1CCCC1 | 7.87 µM | > 100 µM | –
41 | Cc1nc2ccc(NC(=O)COc3cccc(F)c3)cc2s1 | 20.6 µM | > 100 µM | –
42 | CCOC(=O)CSc1nc(N)c(C#N)c(-c2ccc(OCC)cc2)c1C#N | 0.472 µM | 1.32 µM | –

Row | Structure (SMILES) | IC50 | IC90 | CC50
43 | c1ccc(-c2nc(NCCCn3ccnc3)c3oc4ccccc4c3n2)cc1 | 2.81 µM | 3.16 µM | > 40 µM
44 | Cc1cccc(-c2nsc(SCC(=O)NCc3ccc4c(c3)OCO4)n2)c1 | 7.57 µM | > 100 µM | –
45 | O=C(c1nnsc1S(=O)(=O)c1ccc(Cl)cc1)N1CCOCC1 | 7.98 µM | 11.6 µM | 11.3 µM
46 | O=C(Nc1nnc(C2CC2)s1)c1ccccn1 | 2.75 µM | 3.68 µM | 15.6 µM
47 | COc1ccc(COCC(O)CN2CCC(CN3C(=O)c4cccc5cccc(c45)C3=O)CC2)cc1OC (stereo unspecified) | 12.9 µM | > 100 µM | > 40 µM
48 | c1ccc(-c2nnc(SCc3nnc(-c4cccs4)o3)o2)cc1 | 6.34 µM | 11.6 µM | –
49 | Cc1ccc(NC(=O)CCSc2nnc(Cc3ccccc3)o2)cc1 | 16.5 µM | 29.3 µM | –
50 | Cc1sc2nc[nH]c(=S)c2c1-c1ccccc1 | 32.3 µM | > 100 µM | > 40 µM
51 | Cn1ccnc1C(O)c1cc(C(C)(C)C)c(O)c(C(C)(C)C)c1 (stereo unspecified) | 10.3 µM | 13.8 µM | –
52 | Cn1c(N=Nc2ccccc2)nc2ccccc21 | 1.04 µM | 1.89 µM | 16.1 µM
53 | Cc1ccc(NC(=O)/C=C/c2ccc([N+](=O)[O-])s2)c(C)c1 | 1.79 µM | 4.42 µM | 19.5 µM
54 | Cc1nc(N2CCOCC2)c2c(C)c(C(=O)Nc3ccc(C(F)(F)F)cc3)sc2n1 | – | – | > 40 µM
55 | Oc1ccc(COCc2ccccc2)c2cccnc12 | 3 µM | 3.31 µM | 1.6 µM
56 | Cc1c(C(=O)Oc2cccc3cccnc23)cccc1[N+](=O)[O-] | 6.52 µM | 7.5 µM | > 40 µM
57 | Cc1ccc(-c2nc(C(Cl)Cl)c3ccccc3n2)cc1 | 4.4 µM | 12.1 µM | 0.923 µM
58 | COc1ccc(OCC(=O)Nc2ccc3nc(C)sc3c2)cc1 | 10.7 µM | > 100 µM | –
59 | COc1ccc(-c2cc(C(=O)Nc3nc4ccccc4s3)c3ccccc3n2)cc1OC | 4.02 µM | > 100 µM | –
60 | Clc1cccc(-c2nc(NCCN3CCOCC3)c3ccccc3n2)c1 | 12.6 µM | 17.6 µM | > 40 µM
61 | Cc1ccc(C(=O)/C=C/c2ccc(-c3ccc(C)cc3)o2)cc1 | – | – | 21.9 µM
62 | COc1ccc(-c2nnc(SCC(=O)Nc3cc(C)on3)o2)cc1 | 3.86 µM | 6.19 µM | > 40 µM
63 | Cc1ccc(NCCC(=O)c2cccs2)cc1 | 24.8 µM | 32.7 µM | –

Row | Structure (SMILES) | IC50 | IC90 | CC50
64 | O=C(CSc1nc(-c2ccccc2Cl)ns1)c1ccc(Cl)cc1 | 8.62 µM | > 100 µM | –
65 | Cc1ccc(C(=O)N/C(=C\c2ccc(-c3ccc(Br)cc3)o2)C(=O)NCCCN(C)C)cc1 | 15.5 µM | 18.2 µM | 6.45 µM
66 | Cc1c2ccncc2c(C)c2c1[nH]c1ccccc12 | 0.465 µM | 0.667 µM | 0.793 µM
67 | O=C(CCl)N(c1ccccc1)c1ccccc1 | 5.73 µM | 17.6 µM | 1.69 µM
68 | Cc1cc(NC(=O)CSc2nnc(-c3ccccc3)o2)no1 | 5.7 µM | 10.1 µM | > 40 µM
69 | CN(C)c1ccc(NC(=O)Cn2cc3c(n2)CCCC3)cc1 | 13 µM | 18.6 µM | –
70 | Cc1nc2ccccc2n1/N=C/c1ccc([N+](=O)[O-])s1 | < 0.195 µM | < 0.195 µM | 5.49 µM
71 | Clc1nc(-c2ccccn2)nc2scc(-c3ccccc3)c12 | 9.23 µM | 15.5 µM | 19.9 µM
72 | COc1ccc(-c2ccnc3nc(N4CCN(c5ccccc5)CC4)nn23)cc1 | 14.9 µM | > 100 µM | > 40 µM
73 | CCOC(=O)N1CCN(C(=O)CSc2nnc(-c3cc(OC)cc(OC)c3)o2)CC1 | 2.82 µM | 7.03 µM | –
74 | Cc1ccc(Nc2c(-c3ccccn3)nc3ccc(C)cn23)cc1 | 1.43 µM | 1.63 µM | 1.54 µM
75 | Cc1cc(NC(=O)CSc2nnc(-c3ccc4c(c3)OCCO4)o2)no1 | 1.49 µM | 2.53 µM | > 40 µM
76 | Cc1[nH]n(-c2ccc(Cl)cc2)c(=O)c1N=Nc1cccnc1 | 3.39 µM | > 100 µM | 36.1 µM
77 | O=C(OCc1nc2ccccc2s1)c1ccc(Br)o1 | 12.7 µM | > 100 µM | –
78 | O=C(O)c1cn(-c2ccc(N3CCCC3)c(F)c2)c2c(F)c(F)c(F)cc2c1=O | 4.59 µM | 9.57 µM | > 40 µM
79 | CC(=O)CC1(OC(C)=O)C(=O)N(C)c2ccccc21 (stereo unspecified) | 5.34 µM | 5.89 µM | 24.3 µM
80 | Cc1ccccc1Nc1c(-c2ccccn2)nc2c(C)cccn12 | 20.5 µM | > 100 µM | 29 µM
81 | Cc1[nH][nH]c(=O)c1C(c1ccc(-c2ccc(Cl)cc2)o1)c1c(C)[nH][nH]c1=O | 3.69 µM | 17 µM | > 40 µM
82 | O=C(NCCc1ccc(Cl)cc1)C1CCC(CNc2c(N3CCCCC3)c(=O)c2=O)CC1 (stereo unspecified) | 11.8 µM | 13.4 µM | –
83 | CC(=O)Oc1ccc2oc3c(c2c1)C(=O)CCC3 | 12 µM | > 100 µM | –
